How the values were obtained:
[1] = Loss of mixed oxidant activity on exposure to additives (iodometric thiosulfate titration); assay type: physicochemical; parameters: % Loss of mixed oxidant activity at (23° C.) / % Loss of Activity at (23° C.): concentration or dose not given beside the values; conditions: for % Loss of mixed oxidant activity after 24 hours at (23° C.) exposure to mixed oxidant: emollients, beginning mixed oxidant 3800-4100 ppm as available chlorine
Description: The activity of a mixed oxidant system is preferably measured with an iodometric titration by the addition of excess iodide and acid and titration of the resulting iodine (in the form of triiodide) with sodium thiosulfate. This method can measure the various oxidants in the mixture, comprising chlorine.
(§1) A teat dip composition is defined as stable when the activity of the mixed oxidant decreases by less than about 25% over a 12 hour to 72 hour period. The Tables 1 through 3, and 5 below show the stability of mixed oxidants when exposed to various additives for 12 hours to 96 hours. […] In each Table 1 through 5, the beginning mixed oxidant titrated at between 3800 ppm to 4100 ppm measured as available chlorine.

[2] = Loss of color of colorants exposed to mixed oxidant, judged on teat; assay type: physicochemical, dairy animal
Description: as §1
Colorants are added to teat dips to provide a visual indicator that a teat dip was applied to a diary animal teat.
Preferably, a stable colorant is added to the teat sanitizer composition, but the colorant must be visible on the teat at the Ready-to-Use concentration. Some colorants are unacceptable because they are stable in their color in solution, but they are not visible on the teat after an exposure to the mixed oxidant for a period of time.

[3] = chelators, 0.1 days exposure to mixed oxidant, 23° C.

In the case of `CCCCCCCCCCCCc1ccc(S(=O)(=O)O)cc1` [DDBSA, dodecylbenzenesulfonic acid], the “% Loss of Activity at (23° C.)” value ([1]; antimicrobials, 2 days exposure to mixed oxidant, 23° C.) is reported as 6%.

For `CC(C)CCCCCCCCCCCCCCCOC(=O)CCCCC(=O)OCCCCCCCCCCCCCCCC(C)C` [Diisostearyl Adipate], the “% Loss of mixed oxidant activity after 24 hours at (23° C.) exposure to mixed oxidant” value (“% Loss … to mixed oxidant” for short) ([1]; 23° C.) was 13%.

With `CCN(Cc1cccc(S(=O)(=O)[O-])c1)c1ccc(C(=C2C=CC(=[N+](CC)Cc3cccc(S(=O)(=O)[O-])c3)C=C2)c2ccccc2S(=O)(=O)[O-])cc1.[Na+].[Na+]` [FD&C Blue 1] the “Color intensity on teat after 1 day exposure to 4000 ppm mixed oxidant” value (from here on “Color intensity on teat”) [2] was “Clear”.

With `COc1cc(S(=O)(=O)[O-])c(C)cc1N=Nc1c(O)ccc2cc(S(=O)(=O)[O-])ccc12.[Na+].[Na+]` [FD&C Red #40] the “Color intensity on teat” value [2] was “Clear”.

In the case of `OCC(O)CO` [Glycerin], the “% Loss … to mixed oxidant” value ([1]; 23° C.) is reported as 97%.

With `CC(C)CCCCCCCCCCCCCCC(=O)OC(C)C` [Isopropyl Isostearate] the “% Loss … to mixed oxidant” value ([1]; 23° C.) was 11%.

In the case of `CN(C)c1ccc2nc3ccc(=[N+](C)C)cc-3sc2c1` [Methylene Blue], the “Color intensity on teat” value [2] is reported as “Clear”.

With `O=P(O)(O)OP(=O)(O)OP(=O)(O)O` [Na, sodium Tripolyphosphate] the “Stability of chelator with mixed oxidant (in words)” value ([1]; chelators compatible with mixed oxidant) was “stable” and the “% Loss of mixed oxidant activity at (23° C.)” value ([1]; chelators, 2 days exposure to mixed oxidant, 23° C.) was 3.5%.

In the case of `CCCCCCCCCCCCCCCCCC(=O)OCCCCCCCC` [Octyl stearate], the “% Loss … to mixed oxidant” value ([1]; 23° C.) is reported as 11%.

In the case of `CC(O)CO` (stereo not drawn) [Propylene glycol], the “% Loss … to mixed oxidant” value ([1]; 23° C.) is reported as 71% and the “% Loss … to mixed oxidant” value ([1]; 23° C., listed as Propylene Glycol) is reported as 7%.

For `O=C([O-])[C@H](O)[C@@H](O)[C@H](O)[C@H](O)CO.[Na+]` [Sodium Gluconate], the “% Loss of mixed oxidant activity at (23° C.)” value [1, 3] was 90%.

In the case of `OC[C@@H](O)[C@@H](O)[C@H](O)[C@@H](O)CO` [Sorbitol], the “% Loss … to mixed oxidant” value ([1]; 23° C.) is reported as 78%.

For `O=C([O-])C1=NN(c2ccc(S(=O)(=O)[O-])cc2)C(=O)C1N=Nc1ccc(S(=O)(=O)[O-])cc1.[Na+].[Na+].[Na+]` (stereo not drawn) [Yellow #5], the “Color intensity on teat” value [2] was “Clear”, the “Visibility of the dye once applied to a dairy animal teat” value ([2]; after exposure to mixed oxidant) was “unacceptable” and the “Color in the composition after exposure to the mixed oxidant” value ([2]; in solution, after exposure to mixed oxidant) was “still has some color”.

With `O=S(=O)([O-])c1ccc(N=Nc2c(O)ccc3cc(S(=O)(=O)[O-])ccc23)cc1.[Na+].[Na+]` [Yellow #6] the “Color intensity on teat” value [2] was “Clear”.

With Cocamido propyl betaine the “% Loss of mixed oxidant activity at (23° C.)” value ([1]; surfactants, 1 day exposure to mixed oxidant, 23° C.) was 56%.

For EDTA 100, the “% Loss of mixed oxidant activity at (23° C.)” value [1, 3] was 94%.

With Nonylphenol ethoxylate the “% Loss of mixed oxidant activity at (23° C.)” value ([1]; surfactants, 2 days exposure to mixed oxidant, 23° C.) was 55%.

From patent US20150366827A1, “COMPOSITIONS AND METHODS FOR MIXING AND APPLYING MIXED OXIDANT COMPOSITIONS FOR DAIRY ANIMAL TREATMENT” (GEA Farm Technologies, Inc., priority 2009, published 2015)
